The source of these data is publication PMC11468294, “Peptide Amphiphiles as Biodegradable Adjuvants for Efficient Retroviral Gene Delivery” (Advanced Healthcare Materials, 2023).

Data set [1] deals with CD4+ T cells. The data set can be described thus: Confocal microscopy degradation study with CD4+ T cells. The settings on record: 1 µg peptide (5 µg mL-1) added to 250,000 cells, 37°C, 30 min vs 3 d; Proteostat stain. It counts as in vitro ADME, Human. On the procedure:
Confocal laser scanning microscopy and degradation study with PA1‐3 and CD4+ T cells: The degradation of the peptide assemblies on CD4+ T cells was determined by analyzing fluorescence microscopy images. To this end, 4 µL of the preassembled peptide fibrils EF‐C, PA1 and PA2 (1 mg mL^−1, 1 d in PBS) were mixed with 4 µL of Proteostat (Enzo Life Science, 1 µL stock in 99 µL PBS) and incubated for 15 min. 2 µL of the stained fibrils were added to 198 µL preactivated and nucleus stained (Hoechst 33 342) CD4+ T cells (200 µL, 0.25 × 10^6) resulting in a final 5 µg mL^−1concentration of the peptide. After incubation for 30 min at 37°C the cells were washed with 3x with PBS and incubated in medium (supplemented RPMI containing IL‐15 and 7). Microscopy was conducted on a Zeiss LSM 710 confocal microscope with 20x and 63x objective and laser excitation wavelengths of 405 nm (Hoechst) and 561 nm (Proteostat). The measurements were performed after 30 min and 3 d of incubation at 37°C without any washing step in between. Control experiments to analyze changes of fibril aggregation were conducted analogously without the presence of cells. The evaluation of aggregate size and number was conducted by analyzing Proteostat stained aggregates via the 3D objects counter function of ImageJ 1.53f51 for 5 individual measurements (area 708.5 µm × 708.5 µm) of three individually repeated experiments.

Data set [2] in a line: ATR-FT-IR β-sheet content. Format: physicochemical. Conditions: ATR-IR of lyophilized fibril solutions (1 mg mL-1, PBS); peak integration at 1630 cm-1 in 2nd derivative of amide I region. On the procedure:
ATR‐FT‐IR: ATR‐IR spectra acquisition and the calculation of β−sheet content were conducted according to a previous report.^[ [20] ^] Briefly, FT‐IR spectra of solid samples were recorded after lyophilization of fibril solutions using a Bruker Tensor II spectrometer equipped with a diamond crystal as ATR element with a spectral resolution of 2 cm–1, each spectrum was an average of 64 scans. The data was processed with Origin software. β−sheet amount was determined by calculating the integral of the peak at 1630 cm^−1 (β‐sheet) relative to the integral between 1650–1700 cm^−1 (native structure) from the 2nd derivative of the FT‐IR spectra.

The subject of data set [3] is Jurkat cells. The data set can be described thus: CellTiter-Glo cell viability, Jurkat cells. Format: cell-based. Conditions: increasing peptide concentrations, 3 days, biological triplicate. On the procedure: Cell Viability with TZM‐bl and Jurkat cells: The cell viability after addition of peptides to TZM‐bl cells and Jurkat was studied via the CellTiter‐Glo assay. To this end, 20000 cells TZM‐bl or 50000 Jurkat cells were incubated with serial diluted peptides. After 3 days the supernatant was removed and 100 µL CellTiter‐Glo Reagent 1:1 diluted in PBS was added. After 10 min 50 µL was transferred to white microplate and luminescence was recorded by Orion microplate luminometer.

Data set [4] relates to CD4+ T cells. It counts as cell-based, Human. Conditions: 0.26, 1.3, 6.5 µM, 3 days; LIVE/DEAD Fixable Aqua stain. On the procedure: γ‐Retroviral transduction Assay CD4+ T cells: Human CD4+ T cells were isolated from a Buffy coat using RosetteSep Human CD4+ Enrichment Cocktail ([…] Technologies) according to manufacturer's protocol. Isolated T cells were activated using Dynabeads Human T‐Activator CD3/CD28 (GibcoTM) according to manufacturer's protocol in presence of 10 ng mL^−1 IL‐2 (Miltenyi Biotec) for three days. After 3 days the magnetic Dynabeads were removed using a magnet and T cells were cultured in presence of 9 ng mL^−1 IL‐7 (Miltenyi Biotec) and 10 ng mL^−1 IL‐15 (Miltenyi Biotec). After 1 day 5 × 10^5 T cells were transduced with GALV‐γ‐RV in absence and presence of PA1, PA2, EF‐C (0.26, 1.3 and 6.5 µM) and Vectofusin−1 (10 µg mL^−1; Miltenyi Biotec), or RetroNectin (20 µg mL^−1; Takara Bio). […] After 3 days GFP+ T cells were analyzed by flow cytometry. Viability was determined using LIVE/DEAD Fixable Aqua Dead Cell Stain Kit (ThermoFisher Scientific) according to manufacturer's protocol. […]
Figure S7 Viability of CD4+ T cells. […] Dead cells were initially eliminated by gating on viability dye-negative cells (SSC-A vs. Fixable Aqua Fluorescence) and afterwards for singlets (FSC-H vs. FSC-A). GFP+ cells were measured using the FITC channel. […]

Where a SMILES comes first, the peptide text is derived from it. The star is where a group is joined. Palmitoyl = CCCCCCCCCCCCCCCC(=O)*

For `CCCCCCCCCCCCCCCC(=O)N[C@@H](Cc1ccccc1)C(=O)N[C@@H](CCC(N)=O)C(=O)N[C@@H](Cc1ccccc1)C(=O)N[C@@H](CCCCN)C(=O)N[C@@H](Cc1ccccc1)C(=O)N[C@@H](CCCCN)C(=O)N[C@@H](CS)C(N)=O` [PA2] (Palmitoyl-FQFKFKC-NH2), the “degradation of aggregates by CD4+ T cells (in words)” value in data set [1] is recorded as “not degraded as efficiently”. In data set [2], the β-sheet content came out at 59%. For the same compound, in data set [3], the “viability of Jurkat cells” value is on record as “did not reduce the viability”. Moreover, the “viability of CD4+ T cells” value in data set [4] is recorded as “did not reduce the viability”.

On to C16-VVVAAAKKK-NH2 [PA1], for which the “degradation of aggregates by CD4+ T cells (in words)” value in data set [1] is listed as “almost all small aggregates of PA1 are degraded by CD4+ T cells”. The same compound showed a β-sheet content in data set [2] of 57%. Also, in data set [3], the “viability of Jurkat cells” value was “did not reduce the viability”. In addition, in data set [4], the “viability of CD4+ T cells” value is “did not reduce the viability”.
